Experimental data: ChEMBL document CHEMBL1144699 (Bioorg Med Chem, 2008)
The source made the active and inactive calls. No cut-off for these calls is given here.

Tests used:
[1] = target: Mitogen-activated protein kinase 8 (Homo sapiens, UniProt P45983); experiment: Inhibition of human JNK1 by radiometric assay
[2] = Metabolic stability in rat microsomes at 1 uM; format: ADME, Microsome; conditions: read-out: Stability
[3] = target: Mitogen-activated protein kinase 8 (Rattus norvegicus, UniProt P49185); experiment: Inhibition of JNK1 in rat H9c2 cells assessed as inhibition of anisomycin-induced cJun phosphorylation after 30 mins; format: cell-based
[4] = Metabolic stability in human microsomes at 1 uM; format: ADME, Microsome; conditions: read-out: Stability
[5] = Lipophilicity, log D at pH 7.4; format: physicochemical; conditions: buffer
[6] = Total clearance in Wistar rat at 0.3 mg/kg, iv; format: ADME, organism-based; design: dose 0.3 mg/kg, route intravenous; conditions: in vivo
[7] = AUC in Wistar rat at 3 mg/kg, po; format: ADME, organism-based; design: dose 3 mg/kg, route oral; conditions: plasma
[8] = Cmax in Wistar rat at 3 mg/kg, po; format: ADME, organism-based; design: dose 3 mg/kg, route oral; conditions: in vivo
[9] = AUC in Wistar rat at 0.3 mg/kg, iv; format: ADME, organism-based; design: dose 0.3 mg/kg, route intravenous; conditions: plasma
[10] = Volume of distribution at steady state in Wistar rat at 0.3 mg/kg, iv; format: ADME, organism-based; design: dose 0.3 mg/kg, route intravenous; conditions: in vivo, read-out: Vdss
[11] = Oral bioavailability in Wistar rat at 3 mg/kg; format: ADME, organism-based; conditions: in vivo
[12] = Tmax in Wistar rat at 3 mg/kg, po; format: ADME, organism-based; design: dose 3 mg/kg, route oral; conditions: in vivo
[13] = system: Rattus norvegicus; experiment: Suppression of pressure-overload-induced cardiac hypertrophy in Wistar rat assessed as decrease in left ventricular weight to body weight ratio at 1 mg/kg, po once daily for 7 days; format: functional, organism-based; design: dose 1 mg/kg; conditions: Heart left ventricle

Mitogen-activated protein kinase 8 (Rattus norvegicus, UniProt P49185), sequence (P49185 whole entry): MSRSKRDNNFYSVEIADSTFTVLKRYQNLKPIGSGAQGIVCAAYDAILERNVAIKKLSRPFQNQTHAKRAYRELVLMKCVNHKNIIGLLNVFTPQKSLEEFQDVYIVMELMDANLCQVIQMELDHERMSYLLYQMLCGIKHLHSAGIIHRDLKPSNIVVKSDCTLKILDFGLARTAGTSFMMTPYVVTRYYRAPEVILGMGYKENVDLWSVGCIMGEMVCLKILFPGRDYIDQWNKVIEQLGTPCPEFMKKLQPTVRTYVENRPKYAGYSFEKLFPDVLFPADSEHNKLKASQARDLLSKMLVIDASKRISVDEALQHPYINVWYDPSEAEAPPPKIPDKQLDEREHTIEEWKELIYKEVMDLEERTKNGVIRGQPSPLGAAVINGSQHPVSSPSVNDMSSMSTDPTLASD
Mitogen-activated protein kinase 8 (Homo sapiens, UniProt P45983), sequence (P45983 whole entry): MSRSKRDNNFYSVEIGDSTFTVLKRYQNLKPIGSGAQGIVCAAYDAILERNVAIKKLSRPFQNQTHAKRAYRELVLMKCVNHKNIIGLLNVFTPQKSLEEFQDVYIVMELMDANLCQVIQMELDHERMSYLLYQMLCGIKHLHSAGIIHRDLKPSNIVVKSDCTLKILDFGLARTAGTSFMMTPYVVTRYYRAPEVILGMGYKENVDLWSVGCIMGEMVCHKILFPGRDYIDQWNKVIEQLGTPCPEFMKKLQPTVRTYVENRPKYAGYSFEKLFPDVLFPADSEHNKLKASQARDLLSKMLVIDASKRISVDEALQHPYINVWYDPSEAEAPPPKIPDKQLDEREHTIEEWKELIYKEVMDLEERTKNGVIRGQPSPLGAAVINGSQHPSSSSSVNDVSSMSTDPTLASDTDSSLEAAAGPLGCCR

Structure (SMILES) | IC50 [1] [nM] | microsomal CLint at 1 µM [2] [µL/min/mg] | IC50 [3] [nM] | microsomal CLint at 1 µM [4] [µL/min/mg] | logD [5] | further results
CCC(=O)c1c(-c2ccccc2)c2cc(Cl)ccc2c(=O)n1Cc1cn(C(=O)NC)c(C)n1 | 6.8 |  |  |  |  | 
CCC(=O)c1c(-c2ccccc2)c2cc(Cl)ccc2c(=O)n1Cc1cc(C(N)=O)n(CC)n1 | 11 | 110 | 670 | 35 | 4.08 | 
CCC(=O)c1c(-c2ccccc2)c2cc(Cl)ccc2c(=O)n1Cc1cc(S(C)(=O)=O)n(CC(N)=O)n1 | 8.2 |  | 1050 | 14 | 3.42 | 
CCC(=O)c1c(-c2ccccc2)c2cc(Cl)ccc2c(=O)n1Cc1ccc(C(=O)O)cc1 |  |  | 2300 |  |  | 
CCNC(=O)n1cc(Cn2c(C(=O)CC)c(-c3ccccc3)c3cc(Cl)ccc3c2=O)cn1 | 43 | 60 |  | 43 | 4.45 | 
CCNC(=O)n1ccc(Cn2c(C(=O)CC)c(-c3ccccc3)c3cc(Cl)ccc3c2=O)n1 | 8.6 |  |  |  | 4.51 | 
CCC(=O)c1c(-c2ccccc2)c2cc(Cl)ccc2c(=O)n1Cc1cc(C(N)=O)n(C)n1 | 7.3 | 81 | 2180 | 15 | 3.77 | 
CCC(=O)c1c(-c2ccccc2)c2cc(Cl)ccc2c(=O)n1Cc1cc(S(C)(=O)=O)n(CCC(C)(C)O)n1 | 10 | 74 | 330 | 102 | 4.23 | 
CCC(=O)c1c(-c2ccccc2)c2cc(Cl)ccc2c(=O)n1Cc1cc(C(=O)NC2CC2)n(CC(F)F)n1 | 10 |  | 1140 | 14 | 4.66 | 
CCC(=O)c1c(-c2ccccc2)c2cc(Cl)ccc2c(=O)n1Cc1cc(C(=O)NC)n[nH]1 | 33 | 74 |  | 37 | 3.5 | 
CCC(=O)c1c(-c2ccccc2)c2cc(Cl)ccc2c(=O)n1Cc1cc(S(C)(=O)=O)n(CC(C)=O)n1 | 7.6 | 80 | 730 | 70 | 3.79 | 
CCC(=O)c1c(-c2ccccc2)c2cc(Cl)ccc2c(=O)n1Cc1cc(C(=O)NC2CC2)n(C)n1 | 6.4 | 89 | 720 | 44 | 4.35 | clearance [6]: 21.4 mL/min/kg; AUC [7]: 340 ng·h/mL; Cmax [8]: 47.1 ng/mL; AUC [9]: 234 ng·h/mL; Vd [10]: 3.54 L/kg; bioavailability [11]: 15%; Tmax [12]: 2 h; Activity [13]: Active
COC(=O)c1c(-c2ccccc2)c2cc(Br)ccc2c(=O)n1Cc1ccc(S(C)(=O)=O)cc1 |  |  | 2600 |  |  | 
CCC(=O)c1c(-c2ccccc2)c2cc(Cl)ccc2c(=O)n1Cc1cc(C(=O)N(C)C)n(C)n1 | 11 | 230 |  | 250 | 3.91 | 
CCC(=O)c1c(-c2ccccc2)c2cc(Cl)ccc2c(=O)n1Cc1cc(S(C)(=O)=O)n(CC(F)F)n1 | 10 | 52 | 480 | 36 | 4.19 | 
CCC(=O)c1c(-c2ccccc2)c2cc(Cl)ccc2c(=O)n1Cc1ccc(S(C)(=O)=O)cc1 | 28 |  |  |  |  | 
CCC(=O)c1c(-c2ccccc2)c2cc(Cl)ccc2c(=O)n1Cc1cc(C(=O)NC)n(C)n1 | 9.4 | 177 | 260 | 79 | 3.97 | 
